The source of these data is ChEMBL document CHEMBL1159320, “Cytotoxic effect (on tumor cells) and in vitro antiviral activity against herpes simplex virus of synthetic spongiane diterpenes” (J Nat Prod, 2002).

A word on the IC50: it is the midpoint of a concentration-inhibition curve.

≈ marks a conversion by molar mass, not a printed value. Calls of active or inactive are those of the source. The rule behind the calls is not given here. A value given as a limit tells only on which side of the number the result lay.

One data set deals with Vero. Kind of data set: Cytotoxicity against african green monkey Vero cells by EPTT method. In kind it is cell-based. The settings on record: chlorocebus sabaeus.
The next data set concerns Human alphaherpesvirus 2. The experiment in a line: Antiviral activity against HSV2 infected in human HeP2 ells. The format is functional.
For a further data set, the system named is Human alphaherpesvirus 1. Kind of data set: Antiviral activity against HSV1 infected in mouse P388 cells. The format is functional, organism-based. The settings on record: Human alphaherpesvirus 1, P388.
A further data set concerns P388. Kind of data set: Antitumor activity against mouse P388 cells. The format is functional, cell-based.
For a further data set, the system named is CHO. Kind of data set: Cytotoxicity against CHO cells after 48 hrs. The settings on record: chinese hamster. The format is cell-based, Cricetulus griseus.
Data set [1] is described as follows: Cytotoxicity against bovine Bon-Fib cells after 48 hrs. The format is cell-based, Bos taurus. The settings on record: cattle.
Data set [2] relates to HeLa. The experiment in a line: Cytotoxicity against human HeLa cells after 48 hrs. The format is functional.
The subject of data set [3] is HEp-2. Kind of data set: Cytotoxicity against human Hep2 cells after 48 hrs. The format is functional.
Data set [4] has as its system HeLa. The experiment in a line: Cytotoxicity against human HeLa cells after 48 hrs by MTT assay. The format is functional. (Tetrazolium dyes change colour on reduction, which living cells bring about.)
In data set [5] the test system is HEp-2. The experiment in a line: Cytotoxicity against human Hep2 cells after 48 hrs by MTT assay. The settings on record: HEp-2, 48 h. The format is functional.
A short description of data set [6]: Cytotoxicity against CHO cells after 48 hrs by MTT assay. The format is cell-based, Cricetulus griseus. The settings on record: chinese hamster.
A short description of data set [7]: Cytotoxicity against bovine Bon-Fib cells after 48 hrs by MTT assay. The format is cell-based, Bos taurus. The settings on record: cattle.
Data set [8] is described as follows: Cytotoxicity against pig PS cells. The format is cell-based, Sus scrofa. The settings on record: read-out: ED50 (the source's name).
A further data set relates to L1210. Kind of data set: Cytotoxicity against mouse L1210 cells. The format is functional, cell-based.
For a further data set, the system named is KB. The experiment in a line: Cytotoxicity against human KB cells. The format is functional, cell-based.

Turning to `CO[C@@H]1OC2OC(=O)[C@@H]3CC[C@@H]4[C@@]5(C)CCCC(C)(C)[C@@H]5CC[C@]14[C@H]23` (stereo partly drawn), the CC100 in the data set on Vero was 120 µg/mL. In the data set with Human alphaherpesvirus 2, the Activity is 60 µg/mL.

With `C[C@]12CC(=O)[C@H](O)[C@](C)(CO)[C@@H]1CC[C@@]1(C)c3cocc3CC[C@H]21` [EPISPONGIADIOL], the IC50 was 12.5 µg/mL (≈ 37.6 µM) in the data set on Human alphaherpesvirus 1 and 8 µg/mL (≈ 24.1 µM) in the data set on P388.

Take `CC1(C)C(=O)CC[C@]2(C)[C@H]3CCc4cocc4[C@]3(C)CC[C@@H]12`: the CC100 in the data set on Vero is 28 µg/mL; with CHO it was 30 µg/mL; in data set [1] it was 40 µg/mL. Moreover, the result with Human alphaherpesvirus 2 was inactive.

As for `CC(=O)O[C@H]1OC(=O)[C@@H]2CC[C@@H]3[C@@]4(C)CCCC(C)(C)[C@@H]4CC[C@@]3(C=O)[C@H]12`, the CC100 was determined as 9 µg/mL in the data set on Vero; 12 µg/mL in the data set on HeLa [2]; 12 µg/mL in the data set on HEp-2 [3]; 24 µg/mL in the data set on CHO; 24 µg/mL in data set [1]. The Activity with Human alphaherpesvirus 2 was 4.5 µg/mL. The figures for the CC50 in the data set on HeLa [4] and in the data set with HEp-2 [5] were 6.27 µg/mL (≈ 16.7 µM) and 4.43 µg/mL (≈ 11.8 µM), respectively. Moreover, the CC50 at 48 h in [6] stood at 4.96 µg/mL (≈ 13.2 µM); in data set [7], 18.3 µg/mL (≈ 48.6 µM).

In the data set with Vero, `CC1(C)CCC[C@]2(C)[C@H]3CCc4cocc4[C@]3(C)CC[C@@H]12` gave a CC100 of 120 µg/mL. Besides, the Activity with Human alphaherpesvirus 2 came to 60 µg/mL.

As to `CC(=O)O[C@@H]1OC2OC(=O)[C@@H]3CC[C@@H]4[C@@]5(C)CCCC(C)(C)[C@@H]5CC[C@]14[C@H]23` (stereo partly drawn), in the data set on Vero, the CC100 is above 120 µg/mL. Further, the Activity with Human alphaherpesvirus 2 came to 120 µg/mL.

`CC1(C)CCC[C@]2(C)[C@H]3CC=C4C(=O)OC[C@H]4[C@]3(C)CC[C@@H]12` [ISOAGATHOLACTONE] showed a CC100 with Vero of 40 µg/mL. In the data set with Human alphaherpesvirus 2, the outcome was inactive.

On to `COC(=O)[C@@H]1CC[C@@H]2[C@@]3(C)CCCC(C)(C)[C@@H]3CC[C@]23C(O)OC[C@H]13` (stereo partly drawn), for which the CC100 in the data set on Vero is 30 µg/mL; in the data set on HeLa [2], 60 µg/mL; in the data set with CHO, 30 µg/mL; in data set [1], above 120 µg/mL. Further, the result with Human alphaherpesvirus 2 was inactive. The CC50 with HeLa [4] worked out at 37.6 µg/mL (≈ 107 µM); in the data set with HEp-2 [5] it was 21.8 µg/mL (≈ 62.3 µM). Also, the CC50 at 48 h was 24.5 µg/mL (≈ 69.9 µM) in data set [6] and above 120 µg/mL in data set [7].

With `CCCC(=O)O[C@@H]1C[C@H]2C(C)(C)CCC[C@]2(C)[C@H]2CC[C@H]3C(=O)O[C@H]4O[C@@H](O)[C@]21[C@H]43`, the CC50 in data set [8] was 6.5 µg/mL (≈ 15.5 µM).

As to `CO[C@H]1CC[C@]2(C)[C@H]3CCc4cocc4[C@]3(C)CC[C@H]2[C@@H]1C`, the CC100 came to 28 µg/mL in the data set on Vero, 18 µg/mL in the data set on HeLa [2], 36 µg/mL in the data set with CHO and 36 µg/mL in data set [1]. For the same compound, the Activity with Human alphaherpesvirus 2 came out at 15 µg/mL. The CC50 in the data set on HeLa [4] is 13.6 µg/mL (≈ 44.9 µM); in the data set with HEp-2 [5], 10.4 µg/mL (≈ 34.5 µM). Also, the values for the CC50 at 48 h in data set [6] and in [7] were 13.3 µg/mL (≈ 44 µM) and 17.9 µg/mL (≈ 59.2 µM), respectively.

Consider `CC1(C)CCC[C@]2(C)[C@H]3CC[C@H]4C(=O)OC5OC[C@H]4[C@@]53CC[C@@H]12`, for which the CC100 in the data set on Vero stood at 58 µg/mL. Moreover, the Activity in the data set with Human alphaherpesvirus 2 was found to be 29 µg/mL.

For the compound `CC1(C)CCC[C@]2(C)[C@H]3CC[C@]4(O)C(=O)OC[C@H]4[C@]3(C)CC[C@@H]12`, the CC100 in the data set on Vero stood at 56 µg/mL. This compound also had an Activity in the data set with Human alphaherpesvirus 2 of 28 µg/mL.

For `CC1(C)CCC[C@]2(C)[C@H]3CC[C@H]4C(=O)OC[C@H]4[C@]3(C=O)CC[C@@H]12`, the CC100 in the data set on Vero amounted to 28 µg/mL; with CHO, 20 µg/mL; in [1], 40 µg/mL. In the data set with Human alphaherpesvirus 2, this compound gave an Activity of 14 µg/mL. For the same compound, the CC50 amounted to 14.2 µg/mL (≈ 44.5 µM) in the data set on HeLa [4] and 9.56 µg/mL (≈ 30 µM) with HEp-2 [5]. Moreover, the CC50 at 48 h came out at 13.2 µg/mL (≈ 41.3 µM) in data set [6] and 19 µg/mL (≈ 59.6 µM) in data set [7].

For the compound `CC1(C)CCC[C@]2(C)[C@H]3CC[C@H]4C(=O)OC5O[C@@H](O)[C@]3(CC[C@@H]12)[C@H]54` (stereo partly drawn) [DENDRILLOL- 1], the CC100 with Vero came to 8 µg/mL; with CHO, 13 µg/mL; in data set [1] it was 13 µg/mL. In the data set with Human alphaherpesvirus 2, the result was inactive. The CC50 in the data set on HeLa [4] was 14.8 µg/mL (≈ 44.3 µM); in the data set on HEp-2 [5], 3.46 µg/mL (≈ 10.3 µM). Also, the CC50 at 48 h is 5.1 µg/mL (≈ 15.2 µM) in data set [6] and 18.9 µg/mL (≈ 56.4 µM) in data set [7].

On to `CC(=O)O[C@H]1C=C2C(=O)OC[C@@]2(O)[C@]2(C)[C@@H](OC(C)=O)C[C@H]3C(C)(C)CCC[C@]3(C)[C@@H]12` [DORISENONE A], for which the figures for the IC50 with L1210 and in the data set with KB were 0.21 µg/mL (≈ 0.483 µM) and 0.22 µg/mL (≈ 0.506 µM), respectively.

Regarding `CC(=O)OC[C@@H]1[C@H]2CC[C@@H]3[C@@]4(C)CCCC(C)(C)[C@@H]4CC[C@@]13COC2=O`, the CC100 in the data set on Vero was found to be 28 µg/mL; in the data set on HeLa [2], 18 µg/mL; with CHO, 36 µg/mL; in data set [1], 36 µg/mL. The Activity in the data set on Human alphaherpesvirus 2 was found to be 14 µg/mL. The CC50 came to 16.5 µg/mL (≈ 45.5 µM) in the data set on HeLa [4] and 10.1 µg/mL (≈ 27.7 µM) in the data set on HEp-2 [5]. The CC50 at 48 h in data set [6] is 21.5 µg/mL (≈ 59.4 µM); in [7], 15.9 µg/mL (≈ 43.8 µM).

For `CC[C@]1(O)C[C@H]2CN(CCc3c([nH]c4ccccc34)[C@@](C(=O)OC)(c3cc4c(cc3OC)N(C=O)[C@H]3[C@@](O)(C(=O)OC)[C@H](OC(C)=O)[C@]5(CC)C=CCN6CC[C@]43[C@@H]65)C2)C1` [VINCRISTINE], the CC50 with HeLa [4] and with HEp-2 [5] was 0.05 µg/mL (≈ 0.0606 µM) throughout. In addition, the CC50 at 48 h in data set [6] came to 1.15 µg/mL (≈ 1.39 µM); in [7] it was 0.61 µg/mL (≈ 0.739 µM).

Turning to `C[C@]12C[C@@H](O)C(=O)[C@](C)(CO)[C@@H]1CC[C@@]1(C)c3cocc3CC[C@H]21` [ISOSPONGIADIOL], the IC50 stood at 2 µg/mL (≈ 6.02 µM) in the data set with Human alphaherpesvirus 1 and 5 µg/mL (≈ 15 µM) in the data set with P388.

As to `C[C@]12CC(=O)[C@@H](O)[C@](C)(CO)[C@@H]1CC[C@@]1(C)c3cocc3CC[C@H]21` [SPONGIADIOL], the figures for the half-inhibitory concentration (IC50) with Human alphaherpesvirus 1 and in the data set with P388 were 0.25 µg/mL (≈ 0.752 µM) and 0.5 µg/mL (≈ 1.5 µM), respectively.

For `Nc1nc2c(ncn2COCCO)c(=O)[nH]1` [ACYCLOVIR], the CC100 in the data set with Vero was above 600 µg/mL. The compound further registered an Activity in the data set on Human alphaherpesvirus 2 of 6 µg/mL.

In the data set on Vero, `CC1(C)CCC[C@]2(C)[C@H]3CC[C@H]4C(=O)OC[C@]3(CC[C@@H]12)[C@@H]4CO` had a CC100 of 37.5 µg/mL. In the data set on Human alphaherpesvirus 2, this compound displayed an Activity of 18.7 µg/mL.

The compound `CC1(C)CCC[C@]2(C)[C@H]3CC[C@@]4(O)C(=O)OC[C@H]4[C@]3(C)CC[C@@H]12` displayed a CC100 in the data set with Vero of 50 µg/mL. Moreover, the Activity in the data set on Human alphaherpesvirus 2 worked out at 25 µg/mL.
